“And” between values parts separate entries of the source, which are not always exact repeats. Equal entries are not always repeated. Structures can show the parent of a compound that is named as a salt.
Target: human BACE-1 (Homo sapiens, UniProt P56817)
Assay: CEREP BACE Inhibition Assay
Assay type: biochemical
Settings: recombinant enzyme; for inhibition at 1 µM: read-out: % Inhibition @ 1.0 μM; for IC50: read-out: IC50
Description: More specifically the assay, run at 50 μL in a 96 well plate, evaluated the effect of test compound on the activity of the human BACE-1 quantified by measuring the formation of Mca-S-E-V-N-L-NH2 from […], using a recombinant enzyme. The test compound, reference compound or water (control) were added to a buffer containing 0.09 M sodium acetate (pH 4.5) and 0.25 μg BACE-1. Compound interference with the fluorimetric detection method due to autofluorescence was then checked by measurements at the wavelengths defined to evaluate the enzyme activity. […] For control basal measurement, the substrate was omitted from the reaction mixture. […] The standard inhibitory reference compound was OM99-2, which was tested in each experiment at several concentrations to obtain an inhibition curve from which its IC50 value was calculated.

[1] = percent inhibition of the control activity

Chain of human BACE-1 (P56817 46-501): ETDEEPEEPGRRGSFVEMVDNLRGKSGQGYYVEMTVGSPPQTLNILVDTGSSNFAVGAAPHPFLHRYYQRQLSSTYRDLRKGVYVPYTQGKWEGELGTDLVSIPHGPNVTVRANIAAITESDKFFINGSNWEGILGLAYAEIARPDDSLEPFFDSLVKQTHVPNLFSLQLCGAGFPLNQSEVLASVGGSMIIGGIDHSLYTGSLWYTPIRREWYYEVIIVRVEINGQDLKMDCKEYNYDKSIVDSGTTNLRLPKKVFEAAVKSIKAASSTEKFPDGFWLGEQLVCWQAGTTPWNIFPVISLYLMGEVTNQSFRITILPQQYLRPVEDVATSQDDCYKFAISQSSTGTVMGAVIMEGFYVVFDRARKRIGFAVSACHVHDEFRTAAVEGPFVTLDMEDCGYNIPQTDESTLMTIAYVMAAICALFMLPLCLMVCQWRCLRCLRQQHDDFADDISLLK

| Compound | inhibition at 1 µM [1] | IC50 | further results |
| --- | --- | --- | --- |
| CC(C)(C)CCNC(=O)C[C@@H](C1CCCCC1)N1Cc2cc(Oc3ccccc3)ncc2N=C1N [Compound 202, 3-(2-Amino-6-phenoxy-4H-pyrido[3,4-d]pyrimidin-3-yl)-3(S)-cyclohexyl-N-(3,3-dimethyl-butyl)-propionamide hydrochloride salt] | 88% | 220 nM | % Inhibition @ 1.0 μM (percent inhibition of the control activity, hydrochloride salt): 73% |
| NC1=Nc2cnc(Oc3ccccc3)cc2CN1[C@@H](CCC(=O)N(Cc1nnc[nH]1)C1CCCCC1)C1CCCCC1 [Compound 80, 4-(2-Amino-6-phenoxy-4H-pyrido[3,4-d]pyrimidin-3-yl)-4-(S),N-dicyclohexyl-N-(4H-[1,2,4]triazol-3-ylmethyl)-butyramide] |  | 170 nM | inhibition at 0.3 µM [1]: 97% |
| CC(C)OC(=O)[C@@H](COC(C)(C)C)NC(=O)CC[C@@H](C1CCCCC1)N1Cc2cc(Oc3ccccc3)ncc2N=C1N [Compound 140, 2-[4-(2-Amino-6-phenoxy-4H-pyrido[3,4-d]pyrimidin-3-yl)-4-cyclohexyl-butyrylamino]-3-tert-butoxy-propionic acid isopropyl ester] | 98% | 150 nM |  |
| CN(C(=O)CCC(C1CCCCC1)N1Cc2cc(Oc3ccccc3)ncc2N=C1N)C1CCS(=O)(=O)C1 (centres unmarked) [Compound 170] | 48% | 830 nM |  |
| CC(C)(C)OCCN(Cc1cccs1)C(=O)CC[C@@H](C1CCCCC1)N1Cc2cc(Oc3ccccc3)ncc2N=C1N [Compound 154] | 102% | 110 nM |  |
| CC(C)[C@H](CCC(=O)N[C@@H](COC(C)(C)C)c1nnnn1Cc1ccccc1)N1Cc2cc(Oc3ccccc3)ncc2N=C1N [Compound 95] |  | 210 nM | inhibition at 0.3 µM [1]: 86% |
| CN(CC[C@@H](C1CCCCC1)N1Cc2cc(Oc3ccccc3)ncc2N=C1N)C1CCCCC1 [Compound 206] | 91% | 180 nM and 120 nM | % Inhibition @ 1.0 μM [1]: 90% |
| CC(C)(C)OC[C@H](CN)NCCC[C@@H](C1CCCCC1)N1Cc2cc(Oc3ccccc3)ncc2N=C1N [Compound 167, N^2-[4-(2-Amino-6-phenoxy-4H-pyrido[3,4-d]pyrimidin-3-yl)-4-cyclohexyl-butyl]-3-tert-butoxy-propane-1,2-diamine] | 82% | 520 nM |  |
| Cn1c(CN(CCC(C)(C)C)C(=O)CC[C@@H](C2CCCCC2)N2Cc3cc(Oc4ccccc4)ncc3N=C2N)nc(Cl)c1Cl [Compound 172] | 99% | 170 nM |  |
| C[C@H](CO)N(CCC(C)(C)C)C(=O)CC[C@@H](C1CCCCC1)N1Cc2cc(Oc3ccccc3)ncc2N=C1N [Compound 138] | 8% | 310 nM |  |
| CN(C(=O)CC[C@@H](C1CCOCC1)N1Cc2cc(Oc3ccccc3)ncc2N=C1N)[C@@H](COCc1ccccc1)C(=O)O [Compound 58] |  | 270 nM | inhibition at 0.3 µM [1]: 57% |
| CC(C)(C)c1cn(C[C@@H](C2CCCCC2)N2Cc3cc(Oc4ccccc4)ncc3N=C2NN)nn1 [Compound 245, {3-[2-(4-tert-Butyl-[1,2,3]triazol-1-yl)-1-(R)-cyclohexyl-ethyl]-6-phenoxy-3,4-dihydro-pyrido[3,4-d]pyrimidin-2-yl}-hydrazine] |  |  | inhibition at 10 µM (10.0 μM, percent inhibition of the control activity): 29% |
| CC(C)(C)OC[C@@H](NC(=O)CC[C@@H](C1CCCCC1)N1Cc2cc(Oc3ccccc3)ncc2N=C1N)C(=O)N[C@@H](CCC(=O)O)C(=O)O [Compound 224] | 100% | 82 nM |  |
| CN(C(=O)C[C@@H](C1CCCCC1)N1Cc2cc(Oc3ccccc3)ncc2N=C1N)C1CCCCC1 [Compound 205] | 81% | 290 nM |  |
| CC(C)(CO)NC(=O)CC[C@@H](C1CCCCC1)N1Cc2cc(Oc3ccccc3)ncc2N=C1N [Compound 180] | 99% | 91 nM |  |
| CCOCCCNC(=O)CC[C@@H](C1CCCCC1)N1Cc2cc(Oc3ccccc3)ncc2N=C1N [Compound 173] | 92% | 130 nM |  |
| NC1=Nc2cnc(Oc3ccccc3)cc2CN1[C@@H](CCC(=O)N(CC(=O)O)C1CCCCC1)C1CCCCC1 [Compound 84, {[4-(2-Amino-6-phenoxy-4H-pyrido[3,4-d]pyrimidin-3-yl)-4-(S)-cyclohexyl-butyryl]cyclohexyl-amino}-acetic acid] |  | 100 nM | inhibition at 0.3 µM [1]: 100% |
| CC(CO)NC(=O)C(COC(C)(C)C)NC(=O)CCC(C1CCCCC1)N1Cc2cc(Oc3ccccc3)ncc2N=C1N (centres unmarked) [Compound 109] |  | 120 nM | inhibition at 0.3 µM [1]: 95% |
| CC(C)(C)OC(=O)N1CCC(NC(=O)CC[C@@H](C2CCCCC2)N2Cc3cc(Oc4ccccc4)ncc3N=C2N)CC1 [Compound 150] | 95% | 170 nM |  |
| C[C@@H](OCc1ccccc1)[C@H](CCC(=O)N(CCC(C)(C)C)Cc1ccncc1)N1Cc2cc(Oc3ccccc3)ncc2N=C1N [Compound 185, 4-(S)-(2-Amino-6-phenoxy-4H-pyrido[3,4-d]pyrimidin-3-yl)-5-(R)-benzyloxy-hexanoic acid (3,3-dimethyl-butyl)-pyridin-4-ylmethyl-amide] | 85% | 270 nM |  |
| NC1=Nc2cnc(Oc3ccccc3)cc2CN1[C@@H](CN1CC2(CCCCC2)NC1=O)C1CCCCC1 [Compound 135, 3-[2-(2-Amino-6-phenoxy-4H-pyrido[3,4-d]pyrimidin-3-yl)-2-(R)-cyclohexyl-ethyl]-1,3-diaza-spiro[4.5]decan-2-one] | 52% | 200 nM |  |
| CN(C(=O)CC[C@@H](C1CCCCC1)N1Cc2cc(Oc3ccccc3)ncc2N=C1N)[C@@H](COC(C)(C)C)C(=O)O [Compound 66] |  | 260 nM | inhibition at 0.3 µM [1]: 96% |
| CC(C)[C@H](COCCC1CCCCC1)N1Cc2cc(Oc3ccccc3)ncc2N=C1N [Compound 232, 3-[1-(2-cyclohexyl-ethoxymethyl)-(R)-(2-methyl-propyl)]-6-phenoxy-3,4-dihydro-pyrido[3,4-d]pyrimidin-2-ylamine] | 99% | 110 nM |  |
| CC(C)[C@H](COCC1CCCCC1)N1Cc2cc(Oc3ccccc3)ncc2N=C1N [Compound 234] | 94% | 180 nM |  |
| NC1=Nc2cnc(Oc3ccccc3)cc2CN1[C@@H](CCC(=O)N1CCC[C@H]1CO)C1CCCCC1 [Compound 143] | 65% | 1200 nM |  |
| CC(C)(C)OC[C@H](CN1CCOCC1)NC(=O)CC[C@@H](C1CCCCC1)N1Cc2cc(Oc3ccccc3)ncc2N=C1N [Compound 102, 4-(2-Amino-6-phenoxy-4H-pyrido[3,4-d]pyrimidin-3-yl)-N-(2-(R)-tert-butoxy-1-morpholin-4-ylmethyl-ethyl)-4-(S)-cyclohexyl-butyramide] |  | 460 nM | inhibition at 0.3 µM [1]: 55% |

Further lines, with some results ahead:

| inhibition at 1 µM [1] | IC50 | Compound | further results |
| --- | --- | --- | --- |
|  | 170 nM | CC(C)[C@H](CCC(=O)N[C@H](COCc1ccccc1)C(=O)O)N1Cc2cc(Oc3ccccc3)ncc2N=C1N [Compound 54] | inhibition at 0.3 µM [1]: 97% |
| 57% | 930 nM and 1000 nM | CC(C)(C)CNCC[C@@H](C1CCCCC1)N1Cc2cc(Oc3ccccc3)ncc2N=C1N [Compound 214] | % Inhibition @ 1.0 μM [1]: 53% |
| 97% | 130 nM | CC(C)[C@H](CCC(=O)OCc1ccccc1)N1Cc2cc(Oc3ccccc3)ncc2N=C1N [Compound 231, 4-(2-Amino-6-phenoxy-4H-pyrido[3,4-d]pyrimidin-3-yl)-5-methyl-hexanoic acid benzyl ester] |  |
| 98% | 190 nM | CC(C)OC(=O)[C@H](COC(C)(C)C)NC(=O)CC[C@@H](C1CCCCC1)N1Cc2cc(Oc3ccccc3)ncc2N=C1N [Compound 136] |  |
| 101% | 170 nM | CC(C)(C)CCN(Cc1ccncc1)C(=O)CC[C@@H](C1CCCCC1)N1Cc2cc(Oc3ccccc3)ncc2N=C1N [Compound 137] |  |
| 80% | 320 nM | C[C@@H](O)[C@H](CCC(=O)N(C)C1CCCCC1)N1Cc2cc(Oc3ccccc3)ncc2N=C1N [Compound 177] |  |
| 98% | 150 nM | NC1=Nc2cnc(Oc3ccccc3)cc2CN1[C@@H](Cn1cc(C2CCCCC2)nn1)C1CCCCC1 [Compound 151] |  |
| 3% |  | COCC(=O)NC1=Nc2cnc(Oc3ccccc3)cc2CN1C(Cn1cc(C(C)(C)C)nn1)C1CCCCC1 (stereo in doubt) [Compound 247, N-{3-[2-(4-tert-Butyl-[1,2,3]triazol-1-yl)-1-(S)-cyclohexyl-ethyl]-6-phenoxy-3,4-dihydro-pyrido[3,4-d]pyrimidin-2-yl}-2-methoxy-acetamide] |  |
|  | 190 nM | NC1=Nc2cnc(Oc3ccccc3)cc2CN1[C@@H](CCC(=O)N(Cc1ncc[nH]1)C1CCCCC1)C1CCCCC1 [Compound 78, 4-(2-Amino-6-phenoxy-4H-pyrido[3,4-d]pyrimidin-3-yl)-4-(S),N-dicyclohexyl-N-(1H-imidazol-2-ylmethyl)-butyramide] | inhibition at 0.3 µM [1]: 91% |
| 102% | 130 nM | CC(C)(C)OCCN(Cc1ccc(F)cc1)C(=O)CC[C@@H](C1CCCCC1)N1Cc2cc(Oc3ccccc3)ncc2N=C1N [Compound 158] |  |
| 81% | 190 nM | C[C@@H](O)[C@H](CCC(=O)NCC(C)(C)C)N1Cc2cc(Oc3ccccc3)ncc2N=C1N [Compound 186, 4-(S)-(2-Amino-6-phenoxy-4H-pyrido[3,4-d]pyrimidin-3-yl)-5-(R)-hydroxy-hexanoic acid (2,2-dimethyl-propyl)-amide] |  |
| 88% | 160 nM | NC1=Nc2cnc(Oc3ccccc3)cc2CN1[C@@H](CCCNC[C@H]1CCCO1)C1CCCCC1 [Compound 211] |  |

Source: patent US7531545B2, “2-amino-3,4-dihydro-pyrido[3,4-d]pyrimidine derivatives useful as inhibitors of β-secretase (BACE)” (Janssen Pharmaceutica, N.V., priority 2005, dated 2009)
